What all share (experiment): growth of human tumour cells (NCI), 48 h
For assay [1], the system named is OVCAR-8.
Assay [2] concerns SNB-19.
Assay [3] relates to SK-MEL-5.
The subject of assay [4] is HT-29.
The test system of assay [5] is SW-620.
The subject of assay [6] is OVCAR-5.
In assay [7] the test system is SF-539.
Assay [8] concerns HCT-15.
In assay [9] the test system is SK-OV-3.
Assay [10] has as its system HCT-116.
Assay [11] has as its system K562.
For assay [12], the system named is HOP-62.
The test system of assay [13] is UACC-62.
Assay [14] deals with NCI-H460.
In assay [15] the test system is SN12C.

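1) Cells in 96-well plates. 2) Compound, 48 h, 5 concentrations. 3) Linear interpolation between surrounding doses. 4) Unreached endpoint = highest concentration. GI50 is the concentration that inhibits growth by half.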 The source made the active and inactive calls. Cut-off read from the data, not from the text of the source: active = GI50 up to about 1.1 µM and inactive = higher.

Turning to `CC(=O)Nc1ccc(S(=O)(=O)N/N=C(\C)CN2C(=O)c3ccccc3C2=O)cc1`, the GI50 in assay [1], in assay [2], in [3], in assay [4], in [5] and in assay [6] was > 100 µM (inactive) in each case. The GI50 is > 100 µM (inactive) in [7]; above 100 µM in [8]; > 100 µM (inactive) in assay [9]; > 100 µM (inactive) in [10]; > 100 µM (inactive) in [11]; > 100 µM (inactive) in assay [12]. Moreover, the GI50 was > 100 µM (inactive) in assay [13], > 100 µM (inactive) in assay [14] and 55.2 µM (inactive) in assay [15].

Consider `CC(=O)c1ccccc1NC(=O)C(=O)C(C(=O)c1ccccc1-c1ccccc1)C1OC(=O)c2ccccc21` (stereo not given), for which the GI50 is 19.1 µM (inactive) in assay [1]; 22.1 µM (inactive) in [2]; 19.1 µM (inactive) in assay [3]; 26.9 µM (inactive) in assay [4]; 34.3 µM (inactive) in [5]; 29.2 µM (inactive) in assay [6]. For the same molecule, the GI50 in assay [7] was 17.8 µM (inactive); in assay [8], 19.7 µM; in assay [9], 31.8 µM (inactive); in assay [10], 17.8 µM (inactive); in assay [11], 25.3 µM (inactive); in assay [12] it was 20.1 µM (inactive). The GI50 in assay [13] is 20.7 µM (inactive); in assay [14], 19.1 µM (inactive); in assay [15], 17.1 µM (inactive).

With `CCOC1c2cc(C(C)C)c(O)c(O)c2[C@@]23CCCC(C)(C)C2C1OC3=O` (stereo not given in full), the GI50 in assay [1] was > 100 µM (inactive); in assay [2], > 100 µM (inactive); in assay [3], 70.3 µM (inactive); in [4], > 100 µM (inactive); in assay [5], > 100 µM (inactive); in [6], > 100 µM (inactive). The GI50 was > 100 µM (inactive) in assay [7]; 91 µM in assay [8]; > 100 µM (inactive) in [9]; > 100 µM (inactive) in assay [10]; > 100 µM (inactive) in assay [11]; > 100 µM (inactive) in [12]. In addition, the GI50 was 83.2 µM (inactive) in assay [13], > 100 µM (inactive) in [14] and 94 µM (inactive) in assay [15].

For `Cc1ccc(NC(=O)C(=O)Cc2cccc[n+]2[O-])cc1C`, the GI50 in [1], in assay [2], in [3], in [4], in [5] and in assay [6] was > 100 µM (inactive) in each case. Also, the GI50 in assay [7] is > 100 µM (inactive); in assay [8] it was above 100 µM; in assay [9], > 100 µM (inactive); in assay [10] it was > 100 µM (inactive); in assay [11], > 100 µM (inactive); in assay [12], > 100 µM (inactive). The GI50 in assay [13], in [14] and in assay [15] was > 100 µM (inactive) each time.

For `NC(=O)CCC(NC(=O)C(F)(F)F)C(=O)O` (stereo not given), the GI50 in assay [1], in assay [2], in [3], in assay [4], in assay [5] and in assay [6] was > 100 µM (inactive) throughout. For the same molecule, the GI50 in [7] is > 100 µM (inactive); in assay [8] it was above 100 µM; in assay [9], > 100 µM (inactive); in [10] it was > 100 µM (inactive); in assay [11], > 100 µM (inactive); in [12], > 100 µM (inactive). For the same molecule, the GI50 in assay [13], in assay [14] and in assay [15] was > 100 µM (inactive) in each case.

These data come from ChEMBL document CHEMBL1201862, “PubChem BioAssay data set” (2004).
